The structures appear in SMILES notation. Calls of active or inactive are those of the source. The calls are words filed in the database; no cut-off is given here.

The target in test [1] is T1, Protein cereblon/Cyclin-dependent kinase 1 (Homo sapiens) (UniProt P06493+Q96SW2). Briefly: Protac activity at CRBN/CDK1 in human HL-60 cells assessed as induction of CDK1 degradation at 4 to 64 nM measured after 3 days by Western blot analysis. Type of test: cell-based. Particulars: dose 4-64 nM, time 3.0 day.
The target of test [2] is T2, Protein cereblon/Cyclin-dependent kinase 4 (Homo sapiens, UniProt P11802+Q96SW2). In words: Protac activity at CRBN/CDK4 in human HL-60 cells assessed as induction of CDK4 degradation measured after 3 days by Western blot analysis. Type of test: cell-based.
Target sequence in this assay (P11802 whole entry): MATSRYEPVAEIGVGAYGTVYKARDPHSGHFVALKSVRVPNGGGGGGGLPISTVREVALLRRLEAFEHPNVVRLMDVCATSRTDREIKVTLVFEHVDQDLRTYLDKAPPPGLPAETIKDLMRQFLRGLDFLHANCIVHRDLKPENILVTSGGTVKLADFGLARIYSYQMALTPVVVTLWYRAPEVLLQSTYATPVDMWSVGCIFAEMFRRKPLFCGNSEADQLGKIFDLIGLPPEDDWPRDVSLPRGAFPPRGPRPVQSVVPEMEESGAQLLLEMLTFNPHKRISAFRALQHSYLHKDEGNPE
Target sequence in this assay (Q96SW2 whole entry): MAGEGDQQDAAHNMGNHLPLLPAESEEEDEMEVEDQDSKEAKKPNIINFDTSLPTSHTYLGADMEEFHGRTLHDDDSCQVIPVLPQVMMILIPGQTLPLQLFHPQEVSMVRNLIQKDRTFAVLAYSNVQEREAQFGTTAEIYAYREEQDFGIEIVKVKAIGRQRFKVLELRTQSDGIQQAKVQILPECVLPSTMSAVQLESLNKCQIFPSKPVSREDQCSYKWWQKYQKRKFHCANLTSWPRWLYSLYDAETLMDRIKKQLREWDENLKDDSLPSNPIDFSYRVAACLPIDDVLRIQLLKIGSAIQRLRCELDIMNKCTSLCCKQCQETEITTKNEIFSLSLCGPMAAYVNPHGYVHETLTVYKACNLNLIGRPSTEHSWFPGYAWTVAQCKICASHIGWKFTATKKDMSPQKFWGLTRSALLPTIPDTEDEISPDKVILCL
Test [3] concerns the target T3, Protein cereblon/Cyclin-dependent kinase 5 (Homo sapiens) (UniProt Q00535+Q96SW2). In words: Protac activity at CRBN/CDK5 in human THP-1 cells assessed as induction of CDK5 degradation at 4 to 64 nM measured after 3 days by Western blot analysis. Type of test: cell-based. Particulars: dose 4-64 nM, time 3.0 day.
In the next test the test system is OCI-AML2. In words: Antiproliferative activity against human OCI-AML2 cells measured after 1 to 3 days by CCK-8 assay. Type of test: functional, cell-based.
Test [4] has as its target T4, Protein cereblon/Cyclin-dependent kinase 2 (Homo sapiens, UniProt P24941+Q96SW2). Briefly: Protac activity at CRBN/CDK2 in human HL-60 cells assessed as induction of CDK2 degradation by Western blot analysis. The class given is cell-based.
The target in test [5] is Protein cereblon/Cyclin-dependent kinase 9 (Homo sapiens, UniProt P50750+Q96SW2). Briefly: Protac activity at CRBN/CDK9 in human HL-60 cells assessed as induction of CDK9 degradation measured after 3 days by Western blot analysis. The class given is cell-based.
The target in test [6] is T2, Protein cereblon/Cyclin-dependent kinase 4. Briefly: Protac activity at CRBN/CDK4 in human Kasumi 1 cells assessed as induction of CDK4 degradation at 2 to 32 nM measured after 3 days by Western blot analysis. Type of test: cell-based. Particulars: dose 2-32 nM, time 3.0 day.
Target sequence in this assay (P11802 2-303 limits assumed): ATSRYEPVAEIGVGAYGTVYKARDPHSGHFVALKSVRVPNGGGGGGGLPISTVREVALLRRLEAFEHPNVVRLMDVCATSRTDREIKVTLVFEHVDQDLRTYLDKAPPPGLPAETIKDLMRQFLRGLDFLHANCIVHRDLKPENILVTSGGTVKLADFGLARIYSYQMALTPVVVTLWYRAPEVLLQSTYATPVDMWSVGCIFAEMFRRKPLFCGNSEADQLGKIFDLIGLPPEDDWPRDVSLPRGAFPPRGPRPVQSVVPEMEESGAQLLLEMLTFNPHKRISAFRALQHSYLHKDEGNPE
Target sequence in this assay (Q96SW2 whole entry partner): as the sequence (Q96SW2 whole entry) above
Test [7] concerns the target Protein cereblon/Receptor-type tyrosine-protein kinase FLT3 (Homo sapiens, UniProt P36888+Q96SW2). In words: Protac activity at CRBN/FLT3-ITD in human HL-60 cells assessed as induction of FLT3 degradation measured after 3 days by Western blot analysis. Type of test: cell-based.
Test [8] relates to Protein cereblon/Receptor-type tyrosine-protein kinase FLT3 (Homo sapiens), P36888+Q96SW2 [UNDEFINED MUTATION]. Briefly: Protac activity at CRBN/FLT3-ITD mutant in human MV4-11 cells assessed as induction of FLT3 degradation at 2 nM measured after 3 days by Western blot analysis relative to control. Type of test: cell-based. Particulars: time 3.0 day.
For test [9], the target named is T4, Protein cereblon/Cyclin-dependent kinase 2. In words: Protac activity at CRBN/CDK2 in human THP-1 cells assessed as induction of CDK2 degradation at 4 to 64 nM measured after 3 days by Western blot analysis. Type of test: cell-based. Particulars: dose 4-64 nM, time 3.0 day.
For test [10], the target named is T2, Protein cereblon/Cyclin-dependent kinase 4. Briefly: Protac activity at CRBN/CDK4 in human THP-1 cells assessed as induction of CDK4 degradation at 4 to 64 nM measured after 3 days by Western blot analysis. The class given is cell-based. Particulars: dose 4-64 nM, time 3.0 day.
Target sequence in this assay (P11802 2-303 limits assumed): as the sequence (P11802 2-303 limits assumed) above
Target sequence in this assay (Q96SW2 whole entry partner): as the sequence (Q96SW2 whole entry) above
For test [11], the target named is T3, Protein cereblon/Cyclin-dependent kinase 5 (Homo sapiens). In words: Protac activity at CRBN/CDK5 in human Kasumi 1 cells assessed as induction of CDK5 degradation at 2 to 32 nM measured after 3 days by Western blot analysis. The class given is cell-based. Particulars: dose 2-32 nM, time 3.0 day.
Test [12] deals with T1, Protein cereblon/Cyclin-dependent kinase 1 (Homo sapiens). Briefly: Protac activity at CRBN/CDK1 in human MV4-11 cells assessed as induction of CDK1 degradation at 2 to 32 nM measured after 3 days by Western blot analysis. The class given is cell-based. Particulars: dose 2-32 nM, time 3.0 day.
The target of test [13] is T4, Protein cereblon/Cyclin-dependent kinase 2. Briefly: Protac activity at CRBN/CDK2 in human HL-60 cells assessed as induction of CDK2 degradation measured after 24 hrs by Western blot analysis. Type of test: cell-based.
Test [14] has as its system HL-60. In words: Induction of pro-differentiation of human HL-60 cells assessed as CD11b expression at 2 nM measured after 3 days by immunostaining-based flow cytometry (reference value: 8.32 to 10.55%). Type of test: functional. Particulars: time 3 day.
The target in test [15] is Protein cereblon/Cyclin-dependent kinase 6 (Homo sapiens, UniProt Q00534+Q96SW2). In words: Protac activity at CRBN/CDK6 in human MV4-11 cells assessed as induction of CDK6 degradation at 2 to 32 nM measured after 3 days by Western blot analysis. The class given is cell-based. Particulars: dose 2-32 nM, time 3.0 day.
Test [16] deals with T4, Protein cereblon/Cyclin-dependent kinase 2. In words: Protac activity at CRBN/CDK2 in human HL-60 cells assessed as induction of CDK2 degradation at 10 nM measured after 24 hrs in presence of CDK2 inhibitor FN-150 by Western blot analysis. The class given is cell-based.
Test [17] deals with HL-60. Briefly: Induction of pro-differentiation of human HL-60 cells assessed as increase in CD11b expression at 6.25 nM measured after 3 days by immunostaining-based flow cytometry relative to 500 nM CPS2. Type of test: functional. Particulars: time 3 day.
Test [18] concerns HL-60. Briefly: Induction of pro-differentiation of human HL-60 cells assessed as CD11b expression at 1 nM measured after 5 days by immunostaining-based flow cytometry (reference value: 10.08 to 10.33%). The class given is functional. Particulars: time 5 day.
The test system of test [19] is HL-60. In words: Induction of pro-differentiation of human HL-60 cells assessed as CD11b expression at 4 nM measured after 5 days by immunostaining-based flow cytometry (reference value: 10.08 to 10.33%). The class given is functional. Particulars: time 5 day.
In test [20] the test system is HL-60. In words: Induction of pro-differentiation of human HL-60 cells assessed as increase in CD11b expression at 6.25 nM measured after 5 days by immunostaining-based flow cytometry relative to control. The class given is functional. Particulars: time 5 day.
Test [21] has as its system HL-60. In words: Induction of pro-differentiation of human HL-60 cells assessed as CD11b expression at 4 nM measured after 3 days by immunostaining-based flow cytometry (reference value: 8.32 to 10.55%). Type of test: functional. Particulars: time 3 day.

T3 sequence (Q00535 whole entry, looked up): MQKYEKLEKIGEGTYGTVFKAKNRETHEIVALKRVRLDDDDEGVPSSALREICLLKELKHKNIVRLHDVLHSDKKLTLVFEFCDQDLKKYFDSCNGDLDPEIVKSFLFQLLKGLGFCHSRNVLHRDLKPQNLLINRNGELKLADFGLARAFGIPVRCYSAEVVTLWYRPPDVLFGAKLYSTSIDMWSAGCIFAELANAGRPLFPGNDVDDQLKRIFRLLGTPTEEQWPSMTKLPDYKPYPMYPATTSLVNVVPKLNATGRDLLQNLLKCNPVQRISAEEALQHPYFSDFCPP
T3 sequence (Q96SW2 whole entry, looked up): as the sequence (Q96SW2 whole entry) above
T1 sequence (P06493 whole entry, looked up): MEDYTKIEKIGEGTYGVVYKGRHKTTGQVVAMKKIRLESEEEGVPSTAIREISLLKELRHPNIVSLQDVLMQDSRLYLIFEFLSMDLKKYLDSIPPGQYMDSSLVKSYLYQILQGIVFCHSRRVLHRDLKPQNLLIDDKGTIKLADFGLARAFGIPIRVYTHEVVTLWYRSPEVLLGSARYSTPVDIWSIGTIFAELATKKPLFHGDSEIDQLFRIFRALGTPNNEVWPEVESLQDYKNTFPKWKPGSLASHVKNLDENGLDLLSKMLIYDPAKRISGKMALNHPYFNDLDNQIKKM
T1 sequence (Q96SW2 whole entry, looked up): as the sequence (Q96SW2 whole entry) above
Sequence of Protein cereblon/Receptor-type tyrosine-protein kinase FLT3 (Homo sapiens), P36888+Q96SW2 [UNDEFINED MUTATION] (P36888 whole entry, looked up, change not shown): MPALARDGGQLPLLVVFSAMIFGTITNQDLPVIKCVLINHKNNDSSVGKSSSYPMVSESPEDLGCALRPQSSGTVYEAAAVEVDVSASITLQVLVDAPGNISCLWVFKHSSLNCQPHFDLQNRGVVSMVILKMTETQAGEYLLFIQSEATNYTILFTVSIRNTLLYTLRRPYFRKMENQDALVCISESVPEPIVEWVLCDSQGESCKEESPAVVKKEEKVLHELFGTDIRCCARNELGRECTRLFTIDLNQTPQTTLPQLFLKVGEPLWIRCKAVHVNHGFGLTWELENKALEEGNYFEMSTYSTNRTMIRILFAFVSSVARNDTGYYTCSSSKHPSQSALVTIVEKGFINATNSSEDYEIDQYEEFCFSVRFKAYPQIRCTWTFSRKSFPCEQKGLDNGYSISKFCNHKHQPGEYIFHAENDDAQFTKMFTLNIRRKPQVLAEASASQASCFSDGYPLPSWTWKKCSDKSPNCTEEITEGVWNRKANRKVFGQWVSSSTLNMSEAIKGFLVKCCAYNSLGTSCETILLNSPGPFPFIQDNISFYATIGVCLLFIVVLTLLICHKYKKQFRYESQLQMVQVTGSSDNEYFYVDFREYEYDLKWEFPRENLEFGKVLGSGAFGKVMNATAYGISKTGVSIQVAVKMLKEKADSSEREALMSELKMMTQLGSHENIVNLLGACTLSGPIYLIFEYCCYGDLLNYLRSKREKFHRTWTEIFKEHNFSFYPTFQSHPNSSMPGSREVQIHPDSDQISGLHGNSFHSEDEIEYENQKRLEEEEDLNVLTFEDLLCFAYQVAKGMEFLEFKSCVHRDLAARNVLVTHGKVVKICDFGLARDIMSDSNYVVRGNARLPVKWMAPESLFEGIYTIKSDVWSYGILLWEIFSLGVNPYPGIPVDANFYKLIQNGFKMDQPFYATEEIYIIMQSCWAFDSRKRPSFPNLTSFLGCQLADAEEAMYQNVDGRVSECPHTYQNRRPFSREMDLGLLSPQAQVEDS
Sequence of Protein cereblon/Receptor-type tyrosine-protein kinase FLT3 (Homo sapiens), P36888+Q96SW2 [UNDEFINED MUTATION] (Q96SW2 whole entry, looked up, change not shown): as the sequence (Q96SW2 whole entry) above
Sequence of Protein cereblon/Receptor-type tyrosine-protein kinase FLT3 (P36888 whole entry, looked up, change not shown): as the sequence (P36888 whole entry, looked up, change not shown) above
Sequence of Protein cereblon/Receptor-type tyrosine-protein kinase FLT3 (Q96SW2 whole entry, looked up, change not shown): as the sequence (Q96SW2 whole entry) above
Sequence of Protein cereblon/Cyclin-dependent kinase 9 (P50750 whole entry): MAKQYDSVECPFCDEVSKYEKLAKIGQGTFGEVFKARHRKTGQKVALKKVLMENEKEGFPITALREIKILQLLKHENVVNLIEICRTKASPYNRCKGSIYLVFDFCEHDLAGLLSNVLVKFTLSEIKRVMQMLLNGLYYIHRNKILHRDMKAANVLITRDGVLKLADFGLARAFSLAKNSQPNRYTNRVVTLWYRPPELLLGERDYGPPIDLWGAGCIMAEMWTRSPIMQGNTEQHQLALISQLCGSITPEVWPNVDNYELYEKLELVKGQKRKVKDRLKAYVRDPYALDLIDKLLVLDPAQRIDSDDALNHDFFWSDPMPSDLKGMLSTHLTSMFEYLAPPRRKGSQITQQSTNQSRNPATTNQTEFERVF
Sequence of Protein cereblon/Cyclin-dependent kinase 9 (Q96SW2 whole entry): as the sequence (Q96SW2 whole entry) above
Sequence of Protein cereblon/Cyclin-dependent kinase 6 (Q00534 whole entry, looked up): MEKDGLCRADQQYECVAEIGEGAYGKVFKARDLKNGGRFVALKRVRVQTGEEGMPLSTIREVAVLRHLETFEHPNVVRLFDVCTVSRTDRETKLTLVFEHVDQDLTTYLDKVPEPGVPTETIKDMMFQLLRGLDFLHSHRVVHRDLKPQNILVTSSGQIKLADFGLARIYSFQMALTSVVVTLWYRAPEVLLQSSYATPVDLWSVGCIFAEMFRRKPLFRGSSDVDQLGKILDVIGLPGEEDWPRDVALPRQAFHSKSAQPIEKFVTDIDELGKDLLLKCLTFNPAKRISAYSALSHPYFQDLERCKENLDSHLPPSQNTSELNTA
Sequence of Protein cereblon/Cyclin-dependent kinase 6 (Q96SW2 whole entry, looked up): as the sequence (Q96SW2 whole entry) above

Turning to `O=C1CCC(N2C(=O)c3ccc(N4CCC(CN5CCN(Cc6ccc(NC(=O)c7n[nH]cc7Nc7ncnc8[nH]ccc78)cc6)CC5)CC4)cc3C2=O)C(=O)N1` (configuration not stated), the result in test [1], in [3], in test [11], in [12] and in test [16] was inactive. Also, the DC50 is 4.41 nM in [2]; 12.7 nM in test [4]; 4.34 nM in [5]; 5.69 nM in test [7]; 18.7 nM in test [13]. This molecule returned an IC50 in the test with OCI-AML2 of 17.9 nM. The result in [6], in [9], in test [10] and in [15] was Active. The Activity was found to be 77% in test [8]; 29.09% in the test on HL-60 [14]; 29.85% with HL-60 [18]; 58.59% with HL-60 [19]; 43.94% in the test with HL-60 [21]. Besides, the “fold change (FC)” value in the test on HL-60 [17] turned out to be 2.2; with HL-60 [20] it was 7.2.

The values are drawn from ChEMBL document CHEMBL5579829, “Discovery of a potent CDKs/FLT3 PROTAC with enhanced differentiation and proliferation inhibition for AML” (Eur J Med Chem, 2024).
